Measured values taken from patent US20240124442A1, “TRICYCLIC-AMIDO-BICYCLIC PRMT5 INHIBITORS” (AMGEN INC., priority 2021, published 2024).

How the values were obtained:
HCT116 WT cells = experiment: HCT116 WT (parent) cell line proliferation / cell viability (CellTiter-Glo, 6 days); type: cell-based; conditions: Homo sapiens, HCT-116, 144 h, 6 days treatment
Method: (§1) HCT116 Proliferation Activity
(§2) To assess selective anti-proliferative activity of compounds of the invention in cells that have loss expression of MTAP, an HCT-116 isogenic cell line pair was utilized where one cell line was engineered to genetically knockout both MTAP alleles. Cell viability was then assessed in both the parent HCT-116 cell line and the MTAP null cell line after 6 days of treatment with compounds of the present invention. Selective anti-proliferative activity in the MTAP null cell line indicates MTA-cooperative inhibition of PRMT5 and ability to inhibit growth of cancer cells that have loss of MTAP.
(§3) HCT116 MTAP null and WT cells were seeded in 96-well tissue culture plates in RPMI 1640 media+10% fetal bovine serum. Plates were incubated overnight at 37° C. and 5% CO2. Cells were then treated with an 8- or 9-point serial dilution of compound, using a top concentration of 1, or 10 μM, 1:3 serial dilution steps and, a DMSO-only control. Cells were incubated in the presence of drug for 6 days. Effects on cell viability were measured with the CellTiter-Glo® Luminescent Cell Viability Assay (Promega) per manufacturer's recommendation. Assay plates were read on an EnVision™ Multilabel Reader using the Ultra-Sensitive luminescence module. IC50 values were calculated with GraphPad Prism v 5.01 using symmetrical sigmoidal dose-response least squares fit with Hill slope fixed to −1 and top constrain to 100% or GeneData Screener using a 4-parameter logistic model to fit dose response curves.
(§4) Alternatively, compounds could be assayed with a 384 well plate format:
(§5) Compounds were pre-spotted into 384 well plates with a 22-point serial dilution of compound, using a top concentration of 10 or 50 μM, 1:2 serial dilution steps and, a DMSO-only control. HCT116 MTAP null and WT cells were then seeded as above and after 6 days effects on cell viability were measured with the CellTiter-Glo® Luminescent Cell Viability Assay (Promega). Assay plates were read as above and IC50 values were calculated with GeneData Screener using a 4-parameter logistic model to fit dose response curves. The reported IC50 represents the value where the curve transits 50% of control.

HCT116 MTAP null cells = experiment: HCT116 MTAP null cell line proliferation / cell viability (CellTiter-Glo, 6 days); type: cell-based; conditions: 144 h; HCT116 MTAP null cells, 6 days treatment, CellTiter-Glo cell viability; read-out: HCT-116 MTAP null IC50
Method: as §1, §2, §3, §4, §5

| SMILES | IC50 (HCT116 WT cells) [nM] | IC50 (HCT116 MTAP null cells) [nM] |
| --- | --- | --- |
| CN=S(C)(=O)c1ccc2c(c1)OC[C@H]2N(C)C(=O)c1ccc2nc(N)c3c(c2c1)COC3 (mixture of isomers) [Example 447, 4-amino-N-((3S)-6-((R)-N,S-dimethylsulfonimidoyl)-2,3-dihydro-1-benzofuran-3-yl)-N-methyl-1,3-dihydrofuro[3,4-c]quinoline-8-carboxamide and 4-amino-N-((3S)-6-((S)-N,S-dimethylsulfonimidoyl)-2,3-dihydro-1-benzofuran-3-yl)-N-methyl-1,3-dihydrofuro[3,4-c]quinoline-8-carboxamide] | 24900 | 724 |
| CN=S(C)(=O)c1ccc2c(c1)OC[C@H]2N(C)C(=O)c1cc2c3c(c(N)nc2cn1)COC3 (mixture of isomers) [Example 456, 4-amino-N-((3S)-6-((R)-N,S-dimethylsulfonimidoyl)-2,3-dihydro-1-benzofuran-3-yl)-N-methyl-1,3-dihydrofuro[3,4-c][1,7]naphthyridine-8-carboxamide and 4-amino-N-((3S)-6-((S)-N,S-dimethylsulfonimidoyl)-2,3-dihydro-1-benzofuran-3-yl)-N-methyl-1,3-dihydrofuro[3,4-c][1,7]naphthyridine-8-carboxamide] | 24100 | 842 |
| CN(C(=O)c1cc2c3c(c(N)nc2cc1F)COC3)[C@@H]1COc2cc(C(F)(F)F)cnc21 (mixture of isomers) [Example 461, 4-amino-7-fluoro-N-methyl-N-((3R)-6-(trifluoromethyl)-2,3-dihydrofuro[3,2-b]pyridin-3-yl)-1,3-dihydrofuro[3,4-c]quinoline-8-carboxamide and 4-amino-7-fluoro-N-methyl-N-((3S)-6-(trifluoromethyl)-2,3-dihydrofuro[3,2-b]pyridin-3-yl)-1,3-dihydrofuro[3,4-c]quinoline-8-carboxamide] | 38300 | 871 |
| CN=S(C)(=O)c1ccc2c(c1)OC[C@H]2N(C)C(=O)c1cc2c3c(c(N)nc2cc1F)COC3 (mixture of isomers) [Example 463, 4-amino-N-((3S)-6-((R)-N,S-dimethylsulfonimidoyl)-2,3-dihydro-1-benzofuran-3-yl)-7-fluoro-N-methyl-1,3-dihydrofuro[3,4-c]quinoline-8-carboxamide and 4-amino-N-((3S)-6-((S)-N,S-dimethylsulfonimidoyl)-2,3-dihydro-1-benzofuran-3-yl)-7-fluoro-N-methyl-1,3-dihydrofuro[3,4-c]quinoline-8-carboxamide] | 14700 | 134 |
| CN(C(=O)c1ccc2nc(N)c3c(c2c1)COC3)C1COc2cc(C#N)ccc21 (racemic) [Example 201, 4-amino-N-((3R)-6-cyano-2,3-dihydro-1-benzofuran-3-yl)-N-methyl-1,3-dihydrofuro[3,4-c]quinoline-8-carboxamide and 4-amino-N-((3S)-6-cyano-2,3-dihydro-1-benzofuran-3-yl)-N-methyl-1,3-dihydrofuro[3,4-c]quinoline-8-carboxamide] | 5820 | 149 |
| CN(C(=O)c1ccc2nc(N)c3c(c2c1)COC3)C1COc2cc(Br)ccc21 (racemic) [Example 203, 4-amino-N-((3R)-6-bromo-2,3-dihydro-1-benzofuran-3-yl)-N-methyl-1,3-dihydrofuro[3,4-c]quinoline-8-carboxamide and 4-amino-N-((3S)-6-bromo-2,3-dihydro-1-benzofuran-3-yl)-N-methyl-1,3-dihydrofuro[3,4-c]quinoline-8-carboxamide] | 4590 | 93 |
| N#CCN(C(=O)c1cc2c3c(c(N)nc2cn1)COC3)C1COc2cc(C(F)(F)F)ccc21 (racemic) [Example 208, 4-amino-N-(cyanomethyl)-N-((3R)-6-(trifluoromethyl)-2,3-dihydro-1-benzofuran-3-yl)-1,3-dihydrofuro[3,4-c][1,7]-naphthyridine-8-carboxamide and 4-amino-N-(cyanomethyl)-N-((3S)-6-(trifluoromethyl)-2,3-dihydro-1-benzofuran-3-yl)-1,3-dihydrofuro[3,4-c][1,7]-naphthyridine-8-carboxamide] | 16600 | 553 |

Second part, the compound after the results:

| IC50 (HCT116 WT cells) [nM] | IC50 (HCT116 MTAP null cells) [nM] | SMILES |
| --- | --- | --- |
| 12300 | 360 | C[C@@H]1OCc2c(N)nc3ccc(C(=O)N(C)C4COc5cc(C(F)(F)F)ccc54)cc3c21 (mixture of isomers) [Example 205, (1R)-4-amino-N,1-dimethyl-N-((3S)-6-(trifluoromethyl)-2,3-dihydro-1-benzofuran-3-yl)-1,3-dihydrofuro[3,4-c]quinoline-8-carboxamide and (1S)-4-amino-N,1-dimethyl-N-((3S)-6-(trifluoromethyl)-2,3-dihydro-1-benzofuran-3-yl)-1,3-dihydrofuro[3,4-c]quinoline-8-carboxamide] |
| 12900 | 365 | CN(C(=O)c1cc2c3c(c(N)nc2cc1F)COC3)C1c2ccc(C(F)(F)F)nc2CC1(C)C (racemic) [Example 213, 4-amino-N-((5R)-6,6-dimethyl-2-(trifluoromethyl)-6,7-dihydro-5H-cyclopenta[b]-pyridin-5-yl)-7-fluoro-N-methyl-1,3-dihydrofuro[3,4-c]-quinoline-8-carboxamide and 4-amino-N-((5S)-6,6-dimethyl-2-(trifluoromethyl)-6,7-dihydro-5H-cyclopenta[b]-pyridin-5-yl)-7-fluoro-N-methyl-1,3-dihydrofuro[3,4-c]-quinoline-8-carboxamide] |
| 15000 | 427 | CN(C(=O)c1cc2c3c(c(N)nc2cc1F)COC3)C1c2ccc(C(F)(F)F)nc2CC1(F)F (racemic) [Example 215, 4-amino-N-((5R)-6,6-difluoro-2-(trifluoromethyl)-6,7-dihydro-5H-cyclopenta[b]-pyridin-5-yl)-7-fluoro-N-methyl-1,3-dihydrofuro[3,4-c]-quinoline-8-carboxamide and 4-amino-N-((5S)-6,6-difluoro-2-(trifluoromethyl)-6,7-dihydro-5H-cyclopenta[b]pyridin-5-yl)-7-fluoro-N-methyl-1,3-dihydro-furo[3,4-c] quinoline-8-carboxamide] |
| 2150 | 38 | CN(C(=O)c1ccc2nc(N)c3cnn(C)c3c2c1)C1COc2ncc(C(F)(F)F)cc21 (racemic) [Example 226, 4-amino-N,1-dimethyl-N-((3R)-5-(trifluoromethyl)-2,3-dihydrofuro[2,3-b]pyridin-3-yl)-1H-pyrazolo[4,3-c]quinoline-8-carboxamide and 4-amino-N,1-dimethyl-N-((3S)-5-(trifluoromethyl)-2,3-dihydro-furo[2,3-b]pyridin-3-yl)-1H-pyrazolo[4,3-c]quinoline-8-carboxamide] |
| 683 | 7 | CCN(C(=O)c1ccc2nc(N)c3cnn(C)c3c2c1)C1COc2cc(C(F)(F)F)ccc21 (racemic) [Example 228, 4-amino-N-ethyl-1-methyl-N-((3R)-6-(trifluoromethyl)-2,3-dihydro-1-benzofuran-3-yl)-1H-pyrazolo[4,3-c]quinoline-8-carboxamide and 4-amino-N-ethyl-1-methyl-N-((3S)-6-(trifluoromethyl)-2,3-dihydro-1-benzofuran-3-yl)-1H-pyrazolo[4,3-c]quinoline-8-carboxamide] |
| 19000 | 723 | CN(C(=O)c1ccc2nc(N)c3cnn(C)c3c2c1)C1c2ccc(C(F)(F)F)nc2CC1(F)F (racemic) [Example 233, 4-amino-N-((5R)-6,6-difluoro-2-(trifluoromethyl)-6,7-dihydro-5H-cyclopenta[b]pyridin-5-yl)-N,1-dimethyl-1H-pyrazolo[4,3-c]quinoline-8-carboxamide and 4-amino-N-((5S)-6,6-difluoro-2-(trifluoromethyl)-6,7-dihydro-5H-cyclopenta[b]pyridin-5-yl)-N,1-dimethyl-1H-pyrazolo[4,3-c]quinoline-8-carboxamide] |
| 533 | 5 | CN(C(=O)c1cc2c(cc1F)nc(N)c1cnn(C)c12)C1COc2nc(C(F)(F)F)ccc21 (racemic) [Example 242, 4-amino-7-fluoro-N,1-dimethyl-N-((3R)-6-(trifluoromethyl)-2,3-dihydrofuro[2,3-b]pyridin-3-yl)-1H-pyrazolo[4,3-c]-quinoline-8-carboxamide and 4-amino-7-fluoro-N,1-dimethyl-N-((3S)-6-(trifluoromethyl)-2,3-dihydrofuro[2,3-b]pyridin-3-yl)-1H-pyrazolo[4,3-c]-quinoline-8-carboxamide] |
